Experiment [1] has as its system Rattus norvegicus. Put plainly: Ex vivo inhibition of [3H]-Diprenophine binding to kappa opioid receptor in striatum/nucleus accumbens isolated from rat treated with compound at 7 mg/kg, po for 6 hrs measured after 30 mins post [3H]-Diprenophine addition to tissue relative to control. The experiment is classed as functional.
The subject of experiment [2] is Rattus norvegicus. Put plainly: Ex vivo inhibition of [3H]-Diprenophine binding to delta opioid receptor in striatum/nucleus accumbens isolated from rat treated with compound at 7 mg/kg, po for 6 hrs measured after 30 mins post [3H]-Diprenophine addition to tissue relative to control. Format: functional.
In experiment [3] the test system is Rattus norvegicus. Description: Ex vivo inhibition of [3H]-Diprenophine binding to mu opioid receptor in striatum/nucleus accumbens isolated from rat treated with compound at 7 mg/kg, po for 6 hrs measured after 30 mins post [3H]-Diprenophine addition to tissue relative to control. The experiment is classed as functional.
Experiment [4] has as its system Rattus norvegicus. Put plainly: Antiobesity activity in po dosed diet-induced obese rat assessed as inhibition of food consumption measured up to 24 hrs by indirect calorimetry assay. Format: functional. The conditions noted are these: read-out: MED.
In experiment [5] the test system is Rattus norvegicus. Description: In vivo inhibition of opioid receptor in obese rat assessed as compound dose causing effective decrease in feeding behavior. The experiment is classed as functional.
The target in experiment [6] is Delta-type opioid receptor (Homo sapiens) (UniProt P41143). Description: Antagonist activity at delta opioid receptor (unknown origin) expressed in membranes assessed as inhibition of DPDPE-induced GTP-gamma-[35S] binding after 4 hrs by micro beta scintillation counting analysis. (GTPγS resists hydrolysis and so accumulates on activated G proteins.)
Delta-type opioid receptor (Homo sapiens), sequence (P41143 whole entry): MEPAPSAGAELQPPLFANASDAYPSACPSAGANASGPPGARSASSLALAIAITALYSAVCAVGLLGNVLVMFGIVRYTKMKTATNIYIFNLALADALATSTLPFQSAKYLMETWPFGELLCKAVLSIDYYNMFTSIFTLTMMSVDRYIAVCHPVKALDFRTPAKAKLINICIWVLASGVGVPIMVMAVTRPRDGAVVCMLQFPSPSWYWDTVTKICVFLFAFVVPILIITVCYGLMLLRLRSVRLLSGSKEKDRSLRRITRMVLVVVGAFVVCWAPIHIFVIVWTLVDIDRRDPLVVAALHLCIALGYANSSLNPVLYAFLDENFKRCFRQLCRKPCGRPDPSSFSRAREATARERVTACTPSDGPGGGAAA
The target in experiment [7] is Kappa-type opioid receptor (Homo sapiens) (UniProt P41145). Description: Antagonist activity at kappa opioid receptor (unknown origin) expressed in membranes assessed as inhibition of U69593-induced GTP-gamma-[35S] binding after 4 hrs by micro beta scintillation counting analysis.
Kappa-type opioid receptor (Homo sapiens), sequence (P41145 whole entry): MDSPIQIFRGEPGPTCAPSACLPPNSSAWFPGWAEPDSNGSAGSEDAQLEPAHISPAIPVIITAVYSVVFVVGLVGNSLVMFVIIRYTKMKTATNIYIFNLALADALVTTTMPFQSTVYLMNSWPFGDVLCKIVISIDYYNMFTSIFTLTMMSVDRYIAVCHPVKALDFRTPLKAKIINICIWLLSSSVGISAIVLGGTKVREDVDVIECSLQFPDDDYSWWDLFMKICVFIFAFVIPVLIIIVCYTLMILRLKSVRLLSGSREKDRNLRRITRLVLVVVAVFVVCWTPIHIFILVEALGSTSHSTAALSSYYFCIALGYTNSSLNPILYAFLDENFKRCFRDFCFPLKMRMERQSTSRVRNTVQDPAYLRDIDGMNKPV
The target of experiment [8] is Mu-type opioid receptor (Homo sapiens) (UniProt P35372). Put plainly: Antagonist activity at mu opioid receptor (unknown origin) expressed in membranes assessed as inhibition of DAMGO1-induced GTP-gamma-[35S] binding after 4 hrs by micro beta scintillation counting analysis.
Mu-type opioid receptor (Homo sapiens), sequence (P35372 whole entry): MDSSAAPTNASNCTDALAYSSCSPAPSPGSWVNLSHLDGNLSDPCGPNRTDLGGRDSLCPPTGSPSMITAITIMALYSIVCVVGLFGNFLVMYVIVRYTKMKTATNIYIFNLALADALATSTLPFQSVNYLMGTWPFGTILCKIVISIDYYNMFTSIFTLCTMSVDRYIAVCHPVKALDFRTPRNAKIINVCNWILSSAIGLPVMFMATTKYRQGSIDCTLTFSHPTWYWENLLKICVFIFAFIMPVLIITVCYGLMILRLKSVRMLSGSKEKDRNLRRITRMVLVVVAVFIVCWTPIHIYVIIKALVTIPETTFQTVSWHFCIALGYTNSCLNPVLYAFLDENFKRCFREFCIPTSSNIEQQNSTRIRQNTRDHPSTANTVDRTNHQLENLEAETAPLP
Experiment [9] has as its system Rattus norvegicus. Put plainly: Antiobesity activity in diet-induced obese rat assessed as energy balance at 3 mg/kg, po measured up to 24 hrs by indirect calorimetry assay. Format: functional.

Here are results for 26 compounds from ChEMBL document CHEMBL3880403, “Diaryl ethers as opioid receptor antagonist” (2006).

The inhibition in vivo is the percentage by which the read-out fell short of the control. `O=C1CC[C@@]2(O)[C@H]3Cc4ccc(O)c5c4[C@@]2(CCN3CC2CC2)[C@H]1O5` [NALTREXONE]: the inhibition in vivo at 7 mg/kg in [1], in experiment [2] and in experiment [3] was < 40% each time. Further, the minimal effective dose in experiment [4] was > 10 mg/kg.
Usually Kb stands for the affinity of an antagonist, worked out from how it opposes an agonist. `CC(C)CCNCc1ccc(Oc2ccc(C(N)=O)cn2)cc1`: in experiment [5], the ED amounted to 0.3 mg/kg. Besides, the antagonist equilibrium constant (Kb) in [6] came to 4.4 nM; in [7], 0.4 nM; in experiment [8], 0.2 nM. Besides, the inhibition in vivo at 7 mg/kg in [1], in experiment [2] and in experiment [3] was > 40% throughout. The minimal effective dose in experiment [4] was found to be 0.3 mg/kg. In experiment [9], the Activity was -35 kcal/kg/day.
On to `NC(=O)c1ccc(Oc2ccc(CNCCc3ccc(F)cc3)cc2)cc1`, for which the inhibition in vivo at 7 mg/kg in [1], in experiment [2] and in experiment [3] was 50% each time.
For the compound `Cc1cc(CNCCC(C)C)ccc1Oc1ccc(C(N)=O)cc1F`, the inhibition in vivo at 7 mg/kg in experiment [1], in [2] and in [3] was 58% each time.
As to `CC(C)(C)CCNCc1ccc(Oc2ccc(C(N)=O)cn2)c(Cl)c1`, the inhibition in vivo at 7 mg/kg in [1], in experiment [2] and in experiment [3] was 83% throughout.
Turning to `COc1cc(CNCCc2ccccc2F)ccc1Oc1ccc(C(N)=O)cn1`, the inhibition in vivo at 7 mg/kg in experiment [1], in experiment [2] and in experiment [3] was 54% in each case.
Turning to `NC(=O)c1ccc(Oc2ccc(CNCCc3cccc(F)c3)cc2)nc1`, the values for the Kb in experiment [6], in [7] and in experiment [8] were 0.677 nM, 0.894 nM and 0.072 nM, respectively. The inhibition in vivo at 7 mg/kg in experiment [1], in experiment [2] and in experiment [3] was 40% each time.
In the case of `C[C@H]1CN(CC[C@H](O)C2CCCCC2)CC[C@@]1(C)c1cccc(O)c1`, the inhibition in vivo at 7 mg/kg in [1], in experiment [2] and in experiment [3] was > 40% in each case. In [4], the minimal effective dose is 1 mg/kg. Moreover, the Activity in [9] was -36 kcal/kg/day.
Consider `CCCCCNCc1ccc(Oc2ccc(C(N)=O)cc2)cc1`, for which the ED in experiment [5] is given as 3 mg/kg. In addition, the minimal effective dose in [4] amounted to 3 mg/kg. The Activity in experiment [9] is -65 kcal/kg/day.
For the compound `COc1cc(CNCCC(C)(C)C)ccc1Oc1ccc(C(N)=O)cn1`, the inhibition in vivo at 7 mg/kg in experiment [1], in [2] and in experiment [3] was 55% each time.
Take `NC(=O)c1ccc(Oc2ccc(CCNCc3ccccc3)cc2Cl)nc1`: the Kb in experiment [6] came out at 17.5 nM; in experiment [7], 7.86 nM; in experiment [8] it was 0.843 nM.
Turning to `CC(C)CCNCc1ccc(Oc2ccc(C(N)=O)cn2)c(Cl)c1`, the inhibition in vivo at 7 mg/kg in experiment [1], in [2] and in [3] was 77% throughout.
Consider `Cc1cc(CNCCC(C)C)ccc1Oc1ccc(C(N)=O)cn1`, for which the ED in experiment [5] turned out to be 0.3 mg/kg. The inhibition in vivo at 7 mg/kg in experiment [1], in [2] and in [3] was 55% throughout. Besides, the minimal effective dose in experiment [4] worked out at 0.3 mg/kg. Also, in experiment [9], the Activity is -68 kcal/kg/day.
`Cc1ccccc1CNCCc1ccc(Oc2ccc(C(N)=O)cn2)c(Cl)c1`: the Kb worked out at 8.9 nM in [6], 3.38 nM in experiment [7] and 0.281 nM in experiment [8].
For `NC(=O)c1ccc(Oc2ccc(CCNCc3cccc(F)c3)cc2Cl)nc1`, the Kb in experiment [6] is 5.78 nM; in [7], 4.5 nM; in experiment [8], 0.41 nM.
As to `CC(C)(C)CCNCc1ccc(Oc2ccc(C(N)=O)cn2)cc1`, the ED result in [5] is given as “<=3 ug/kg”. Moreover, the inhibition in vivo at 7 mg/kg in experiment [1], in [2] and in [3] was 62% each time. The minimal effective dose in [4] was ≤ 3 mg/kg. Moreover, the Activity in experiment [9] is -56 kcal/kg/day.
For `NC(=O)c1ccc(Oc2ccc(CNCCC3CCCCC3)cc2)nc1`, the inhibition in vivo at 7 mg/kg in [1], in experiment [2] and in experiment [3] was 79% throughout.
Turning to `NC(=O)c1ccc(Oc2ccc3c(c2)CCCN(CCc2ccccc2)C3)nc1`, the inhibition in vivo at 7 mg/kg in experiment [1], in experiment [2] and in experiment [3] was 62% in each case.
For the compound `CCCCCNCc1ccc(Oc2ccc(C(N)=O)nc2)c(F)c1`, the inhibition in vivo at 7 mg/kg in experiment [1], in [2] and in experiment [3] was 55% in each case.
Turning to `Cc1cc(CNCCC(C)(C)C)ccc1Oc1ccc(C(N)=O)cn1`, the inhibition in vivo at 7 mg/kg in experiment [1], in [2] and in [3] was 59% in each case.
As for `CC(C)CCNCc1ccc(Oc2ccc(C(N)=O)cn2)c(F)c1`, in experiment [5], the ED was 0.3 mg/kg. Besides, the inhibition in vivo at 7 mg/kg in experiment [1], in [2] and in [3] was > 65% throughout. Moreover, the minimal effective dose in [4] stood at 0.3 mg/kg. Moreover, the Activity in [9] is -81 kcal/kg/day.
`CCCCCNCc1ccc(Oc2ccc(C(N)=O)cn2)c(OC)c1`: the inhibition in vivo at 7 mg/kg in experiment [1], in experiment [2] and in [3] was 75% throughout.
Regarding `NC(=O)c1ccc(Oc2ccc(CNCCc3cccs3)cc2)nc1`, the ED entry in experiment [5] is “<=3 ug/kg”. The Kb in experiment [6] came out at 0.708 nM; in [7] it was 0.355 nM; in experiment [8], 0.068 nM. Besides, the inhibition in vivo at 7 mg/kg in [1], in experiment [2] and in [3] was > 40% throughout. Moreover, the minimal effective dose in experiment [4] is ≤ 3 mg/kg. Moreover, in experiment [9], the Activity was -19 kcal/kg/day.
Take `NC(=O)c1ccc(Oc2ccc(CNCCC3CCCC3)cc2)nc1`: the ED entry in experiment [5] is “<=3 ug/kg”. In addition, the inhibition in vivo at 7 mg/kg in experiment [1], in experiment [2] and in experiment [3] was > 60% in each case. Also, in experiment [4], the minimal effective dose was ≤ 3 mg/kg. The Activity in experiment [9] is -39 kcal/kg/day.
Regarding `NC(=O)c1ccc(Oc2ccc(CCNCc3cccc(Cl)c3)cc2Cl)nc1`, the Kb in experiment [6] amounted to 30.1 nM; in [7], 6.86 nM; in experiment [8], 0.503 nM.
On to `CCCCNCc1ccc(Oc2ccc(C(N)=O)cn2)c(C)c1`, for which the inhibition in vivo at 7 mg/kg in [1], in [2] and in experiment [3] was 38% in each case.
